Test results reported in patent US11857544B2, “Composition or method including (t)ew-7197 for treating or preventing corneal endothelial diseases” (THE DOSHISHA, priority 2017, dated 2024).

Key:
[1] = tested on: Caspase 3/7; test: Caspase 3/7 activity (Caspase-Glo 3/7 Assay) in TGF-β-stimulated iFECD; format: cell-based, human
Description: were seeded on a 96-well plate at a ratio of 3×10^3 cells per well, and cultured until reaching confluence at 37° C. (5% CO2). DMEM+10% FBS+1% P/S was used as the medium. After 24 hours, the medium was removed. SB431542 (WAKO, 192-16541) and EW-7197 (Selleck Chemicals, 57530) were added so that the final concentration would each be 0.01, 0.1, 1, or 10 μM, and the medium was cultured for 24 hours. DMEM+2% FBS+1% P/S was used as the medium. After 24 hours, the medium was removed. 10 ng/ml of Transforming Growth Factor-132 Human recombinant (WAKO, 200-19911) and SB431542 were added so that the final concentration would be 0.01, 0.1, 1, and 10 μM, and the medium was cultured for 24 hours. DMEM+2% FBS+1% P/S was used as the medium. After 24 hours, the cell morphology was observed under a phase contrast microscope. After observation, Caspase 3/7 activity was measured using Caspase-Glo 3/7 Assay by the following procedures. The medium was discarded so that the amount would be 50 μl per well, and a Caspase Glo 3/7 Assay Reagent (mixture of Caspase-Glo 3/7 Assay Buffer and Caspase-Glo 3/7 Assay Substrate) (Promega, G8091) solution was added at 50 μl/well so that the ratio thereof to the medium would be 1:1. The process was hereinafter conducted without exposure to light. The mixture was mixed thoroughly using a shaker for 2 minutes at about 120 min^-1, and incubated for 40 minutes at room temperature. After the incubation, 80 μl was transferred to an Assay plate (Corning, 3912, Assay plate 96 well, white polystyrene), and absorbance was measured using a GloMax-Multi Detection System (Promega, E7051). A caspase inhibitor, i.e., 10μ MZ-VD-FMK (WAKO, 262-02061) was used as a positive control.

[2] = tested on: type I collagen; test: Area of type I collagen expression by immunostaining, Col8a2 knock-in mice (Example 5); format: in vivo; conditions: 0.02% eye drop, 8 weeks
Description: 5 μL of 0.02% (about 0.5 mM) EW-7197 eye drop or a base agent (7% DMSO containing PBS) was administered as an eye drop to both eyes of 4-month-old alpha 2 collagen 8 gene (Col8a2) knock-in mice 4 times a day for 8 weeks. The corneal endothelial cell density was measured using a specular microscope KS3M (Konan Medical, Inc.) at before eye drops, and 2, 4, 6, and 8 weeks after eye drops. Mice were euthanized by intraperitoneally administering an excessive amount (200 mg/kg body weight or greater) of anesthetic injection Somnopentyl (Kyoritsu Seiyaku Corporation) 8 weeks after injection. After confirming cardiac arrest, both eye balls were harvested. The harvested eye balls were incised to prepare a corneal fragment. Immunostaining of type I collagen and fibronectin was performed as follows. Image-Pro (Nippon Roper K.K.) was used to analyze the area of type I collagen and fibronectin expression.
After immobilizing a mouse corneal fragment for 10 minutes at room temperature in 4% paraformaldehyde, 0.5% TritonX-100 was added and allowed to permeate for 5 minutes. 1% bovine serum albumin (BSA) was added and the fragment was incubated for 1 hour at room temperature. The corneal fragment was then immersed in a primary antibody solution and reacted overnight at 4° C. […]

[3] = tested on: Col8a2 knock-in mice; test: Corneal endothelial cell density after eye drops in Col8a2 knock-in mice (Example 6, 12 weeks); format: in vivo; conditions: eye drop group (0.02%, 0.1%)
Description: 5 μL of 0.02% (about 0.5 mM) EW-7197 eye drop, 0.1% (about 2.5 mM) EW-7197 eye drop, or a base agent (DMSO containing phosphate buffer) was administered as an eye drop to both eyes of 4-month-old alpha 2 collagen 8 gene (Col8a2) knock-in mice 4 times a day for 12 weeks. A surfactant was added to the base agent as needed. Those skilled in the art can use an appropriate and suitable surfactant (Kenji Motose (1984). “Tenganzai” [Eye drops] Nanzando; International Pharmaceutical Excipients Council Japan (2016). “Iyakuhin Tenkabutsu Jiten” [Pharmaceutical Excipient Encyclopedia] Yakuji Nippo, Limited). The corneal endothelial cell density was measured using a specular microscope KS3M (Konan Medical, Inc.) at before eye drops, and 3, 6, 9, and 12 weeks after eye drops. Mice were euthanized by intraperitoneally administering an excessive amount (200 mg/kg body weight or greater) of anesthetic injection Somnopentyl (Kyoritsu Seiyaku Corporation) 12 weeks after injection. After confirming cardiac arrest, both eye balls were harvested. The harvested eye balls were incised to prepare a corneal fragment. Immunostaining of fibronectin was performed. The immunostaining method was the following. Image-Pro (Nippon Roper K.K.) was used to analyze the area of fibronectin expression.

## Cc1cccc(-c2[nH]c(CNc3ccccc3F)nc2-c2ccc3ncnn3c2)n1 [EW-7197, N-((4-([1,2,4]triazolo[1,5-a]pyridin-6-yl)-5-(6-methylpyridin-2-yl)-1H-imidazol-2-yl)methyl)-2-fluoroaniline]
[1]; at 0.01 μM
  activity of Caspase 3/7: inhibited significantly
[1]; at 0.1 μM
  Caspase 3/7 inhibitory effect compared to SB431542: higher inhibitory effect
[2]
  area of type I collagen expression compared to the base agent group: decreasing trend
[3]; up to week 6
  corneal endothelial density at the center section of the cornea: tendency for suppressing a decrease
[3]; week 12
  corneal endothelial density at the center section of the cornea vs base agent eye drop group: a significant difference in the corneal endothelial density at the center section of the cornea was not observed
